The text below walks through data of patent US20260200939A1, “MOLECULAR GLUE DEGRADER COMPOUNDS AND USES THEREOF” (Novartis AG, priority 2022, published 2026).

T2 sequence (Q9BV68 whole entry): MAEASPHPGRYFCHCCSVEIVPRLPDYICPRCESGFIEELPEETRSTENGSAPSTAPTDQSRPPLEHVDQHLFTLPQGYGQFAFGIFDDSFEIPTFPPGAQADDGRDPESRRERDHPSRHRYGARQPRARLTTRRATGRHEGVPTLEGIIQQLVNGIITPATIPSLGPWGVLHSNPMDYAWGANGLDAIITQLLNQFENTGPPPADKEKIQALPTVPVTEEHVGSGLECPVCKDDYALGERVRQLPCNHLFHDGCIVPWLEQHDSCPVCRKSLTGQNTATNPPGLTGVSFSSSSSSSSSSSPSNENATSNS

The target of one assay is T1, SMARCA2 (Homo sapiens, UniProt P51531).
T1 construct: endogenous in cells; host or cells: MV-4-11
T1 sequence (P51531 whole entry): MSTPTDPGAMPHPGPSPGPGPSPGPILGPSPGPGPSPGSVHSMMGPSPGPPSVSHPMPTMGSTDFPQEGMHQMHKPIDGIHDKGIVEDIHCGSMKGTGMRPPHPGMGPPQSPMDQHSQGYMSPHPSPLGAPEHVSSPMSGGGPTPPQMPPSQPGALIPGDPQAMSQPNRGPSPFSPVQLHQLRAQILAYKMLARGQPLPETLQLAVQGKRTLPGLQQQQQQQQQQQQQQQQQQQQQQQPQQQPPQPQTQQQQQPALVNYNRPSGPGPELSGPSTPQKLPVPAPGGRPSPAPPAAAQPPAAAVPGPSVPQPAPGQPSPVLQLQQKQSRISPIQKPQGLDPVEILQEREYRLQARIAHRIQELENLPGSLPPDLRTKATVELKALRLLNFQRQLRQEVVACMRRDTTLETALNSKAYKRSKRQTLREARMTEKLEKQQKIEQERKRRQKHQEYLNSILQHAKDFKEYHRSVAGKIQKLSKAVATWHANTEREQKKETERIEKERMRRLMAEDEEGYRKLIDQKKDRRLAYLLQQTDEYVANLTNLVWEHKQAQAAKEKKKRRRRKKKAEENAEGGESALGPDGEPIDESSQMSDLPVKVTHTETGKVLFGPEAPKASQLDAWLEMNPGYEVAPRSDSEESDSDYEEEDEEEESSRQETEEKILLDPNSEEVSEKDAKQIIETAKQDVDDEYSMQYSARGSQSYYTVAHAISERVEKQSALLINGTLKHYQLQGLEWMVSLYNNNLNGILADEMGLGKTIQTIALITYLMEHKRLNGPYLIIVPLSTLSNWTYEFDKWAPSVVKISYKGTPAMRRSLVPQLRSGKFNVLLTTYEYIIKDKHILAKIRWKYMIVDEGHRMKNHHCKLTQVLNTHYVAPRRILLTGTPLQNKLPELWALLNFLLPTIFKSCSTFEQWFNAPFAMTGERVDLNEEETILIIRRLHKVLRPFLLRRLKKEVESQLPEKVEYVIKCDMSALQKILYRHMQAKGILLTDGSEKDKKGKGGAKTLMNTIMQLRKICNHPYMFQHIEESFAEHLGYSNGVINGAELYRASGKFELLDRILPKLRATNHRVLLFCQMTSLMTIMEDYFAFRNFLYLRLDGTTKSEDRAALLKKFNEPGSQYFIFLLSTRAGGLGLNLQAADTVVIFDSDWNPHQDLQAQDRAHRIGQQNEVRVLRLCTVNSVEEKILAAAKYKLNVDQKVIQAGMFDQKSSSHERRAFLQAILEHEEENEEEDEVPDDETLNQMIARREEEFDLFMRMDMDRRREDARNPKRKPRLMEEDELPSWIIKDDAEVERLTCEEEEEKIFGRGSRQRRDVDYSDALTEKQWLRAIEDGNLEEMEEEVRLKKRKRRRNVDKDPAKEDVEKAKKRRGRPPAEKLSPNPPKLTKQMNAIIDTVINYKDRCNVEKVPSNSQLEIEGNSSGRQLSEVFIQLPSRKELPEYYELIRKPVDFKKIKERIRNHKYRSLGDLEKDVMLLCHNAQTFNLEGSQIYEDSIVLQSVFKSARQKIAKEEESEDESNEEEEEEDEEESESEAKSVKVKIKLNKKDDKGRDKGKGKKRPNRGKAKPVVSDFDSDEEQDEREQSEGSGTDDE
Briefly: SMARCA2 Degradation assay, Western blotting. Type of assay: cell-based.
Settings: not given
The protocol: (§1) C33A cells were purchased from American Type Culture Collection (ATCC) and were cultured in Dulbecco's Modified Eagle Medium (DMEM) containing 10% (v/v) fetal bovine serum (FBS) and maintained at 37° C. with 5% CO2. 22RV1 cells were purchased from the ATCC and were cultured in RPMI-1640 Medium containing 10% (v/v) FBS and maintained at 37° C. with 5% CO2. HEK293T cells were obtained from the UC Berkeley Cell Culture Facility and were cultured in DMEM containing 10% (v/v) FBS and maintained at 37° C. with 5% CO2. K562 cells were obtained from the UC Berkeley Cell Culture Facility and were cultured in Iscove's Modified Dulbecco's Medium (IMDM) containing 10% (v/v) FBS and maintained at 37° C. with 5% CO2. MV-4-11 cells were obtained from the ATCC and were cultured in IMDM containing 10% (v/v) FBS and maintained at 37° C. with 5% CO2. A549 cells were obtained from the ATCC and were cultured in F-12K Medium containing 10% (v/v) FBS and maintained at 37° C. with 5% CO2. Mino cells were obtained from the ATCC and were cultured in RPMI-1640 Medium containing 10% (v/v) FBS and maintained at 37° C. with 5% CO2. LNCaP cells were obtained from the ATCC and were cultured in RPMI-1640 Medium containing 10% (v/v) FBS and maintained at 37° C. with 5% CO2. Unless otherwise specified, all cell culture materials were purchased from Gibco. It is not known whether HEK293T cells are from male or female origin.
(§2) Cells were washed twice with cold PBS, scraped, and pelleted by centrifugation (700 g, 5 min, 4° C.). Pellets were resuspended in PBS, sonicated, clarified by centrifugation (12,000 g, 10 min, 4° C.), and lysate was transferred to new low-adhesion microcentrifuge tubes. Proteome concentrations were determined using BCA assay and lysate was diluted to appropriate working concentrations.
Proteins were resolved by SDS/PAGE and transferred to nitrocellulose membranes using the Trans-Blot Turbo transfer system (Bio-Rad). […]
(In general: In western blotting, separated proteins are transferred to a membrane and probed.)
Take `COc1ccc(C(=O)/C=C/C(=O)N[C@H]2C[C@H](NC(=O)CN3CCN(c4cc(-c5ccccc5O)nnc4N)CC3)C2)c(F)c1` [Compound 282, (E)-N-((1r,3r)-3-(2-(4-(3-amino-6-(2-hydroxyphenyl)pyridazin-4-yl)piperazin-1-yl)acetamido)cyclobutyl)-4-(2-fluoro-4-methoxyphenyl)-4-oxobut-2-enamide]: the DC50 (in general, the concentration at which degradation of the target reaches its halfway point) was > 5 µM.

A further assay has as its target T2, Recombinant RNF126 (Homo sapiens, UniProt Q9BV68).
T2 construct: FLAG (C); host or cells: HEK293T
Briefly: RNF126 Binding Assay, gel-based ABPP.
Settings: not given
The protocol:
RNF126 mammalian expression plasmid with a C-terminal FLAG tag was purchased from Origene (Origene Technologies Inc., RC204986). The plasmid was transformed into NEB 5-alpha Competent E. coli (DH5) cells (NEB product no. C2987H). The following day, a single transformed colony was used to inoculate 50 ml of nutrient rich LB medium containing kanamycin (50 μg/ml) and was incubated at 37° C. overnight, with agitation (250 rpm). A Miniprep (Qiagen) kit was used to isolate the plasmid before sequence verification with appropriate primers.
HEK293T cells were grown to 30-50% confluency in DMEM supplemented with 10% FBS (Corning) and maintained at 37° C. with 5% CO2. Immediately before transfection, media was replaced with DMEM containing 5% FBS. Each plate was transfected with 24 μg of overexpression plasmid with 24 μL Lipofectamine 3000 (Invitrogen) in Opti-MEM. After 48 h cells were collected in PBS, lysed by sonication, and batch bound with anti-DYKDDDDK resin (GenScript, L00432) for 2 hours. Lysate and resin were washed with PBS and eluted with 133.33 μg/ml 3×FLAG peptide (ApexBio, A6001) in PBS. Five elutions were performed for 15 minutes each. Elutions were concentrated and the protein was stored in PBS. Concentration and purity was determined using the BCA assay and western blotting.
Recombinant RNF126 ([…]) was pre-treated with either DMSO vehicle or covalent ligand at 37° C. for 30 min in 25 μL of PBS, and subsequently treated with of IA-Rhodamine (concentrations designated in figure legends) (Setareh Biotech) at room temperature for 1 h in the dark. The reaction was stopped by addition of 4×reducing Laemmli SDS sample loading buffer (Alfa Aesar). After boiling at 95° C. for 5 min, the samples were separated on precast 4-20% Criterion TGX gels (Bio-Rad). Probe-labeled proteins were analyzed by in-gel fluorescence using a ChemiDoc MP (Bio-Rad).
As to `COc1ccc(C(=O)/C=C/C(=O)N2CCN(c3ccc(Nc4ncc5c(C)c(C(C)=O)c(=O)n(C6CCCC6)c5n4)nc3)CC2)cc1` [Compound 136], the “binding to RNF126 (gel-based ABPP), in words” value is reported as “maintained binding to RNF126”.

The target in a further assay is T3, CDK4 (Homo sapiens, UniProt P11802).
T3 construct: endogenous in cells; host or cells: C33A
Briefly: CDK4 Degradation Assay, Western blotting. The assay is classed as cell-based.
Settings: not given
As to the method: as §1, §2
(§3) Proteins were resolved by SDS/PAGE and transferred to nitrocellulose membranes using the Trans-Blot Turbo transfer system (Bio-Rad). Membranes were blocked with 5% BSA in Tris-buffered saline containing Tween 20 (TBS-T) solution for 30 min at RT, washed in TBS-T, and probed with primary antibody diluted in recommended diluent per manufacturer overnight at 4° C. After 3 washes with TBS-T, the membranes were incubated in the dark with IR680- or IR800-conjugated secondary antibodies at 1:10,000 dilution in 5% BSA in TBS-T at RT for 1 h. After 3 additional washes with TBST, blots were visualized using an Odyssey Li-Cor fluorescent scanner. The membranes were stripped using ReBlot Plus Strong Antibody Stripping Solution (EMD Millipore) when additional primary antibody incubations were performed. Antibodies used in this study were CDK4 (Abcam ab108357), Vinculin (Abcam ab129002), GAPDH (Cell Signaling Technology 14C10), RNF126 (Santa Cruz Biotechnology sc-376005), BRD4 (Abcam ab128874), Beta Actin (Cell Signaling Technology 13E5), PDE5 (Abcam ab259945), AR-V7 (Abcam ab273500), c-Abl (Santa Cruz Biotechnology sc-23), SMARCA2 (Abcam ab240648), LRRK2 (Abcam ab133474), BTK (Cell Signaling Technology D3H5), Androgen Receptor (Abcam ab133273).
For the compound `COc1ccc(C(=O)/C=C/C(=O)N[C@H]2C[C@@H](Nc3ccc(Nc4ncc5cc(C(=O)N(C)C)n(C6CCCC6)c5n4)nc3)C2)cc1` [Compound 269, 7-cyclopentyl-2-((5-(((1s,3s)-3-((E)-4-(4-methoxyphenyl)-4-oxobut-2-enamido)cyclobutyl)amino)pyridin-2-yl)amino)-N,N-dimethyl-7H-pyrrolo[2,3-d]pyrimidine-6-carboxamide], the DC50 was > 10 µM.
Regarding `COc1ccc(C(=O)/C=C/C(=O)N[C@H]2C[C@H](Nc3ccc(Nc4ncc5cc(C(=O)N(C)C)n(C6CCCC6)c5n4)nc3)C2)cc1` [Compound 270, 7-cyclopentyl-2-((5-(((1r,3r)-3-((E)-4-(4-methoxyphenyl)-4-oxobut-2-enamido)cyclobutyl)amino)pyridin-2-yl)amino)-N,N-dimethyl-7H-pyrrolo[2,3-d]pyrimidine-6-carboxamide], the DC50 was > 10 µM.
For `COc1ccc(C(=O)/C=C/C(=O)N2CCN(c3ccc(Nc4ncc5cc(C(=O)N(C)C)n(C6CCCC6)c5n4)nc3)[C@H](C)C2)cc1` [Compound 271, (R,E)-7-cyclopentyl-2-((5-(4-(4-(4-methoxyphenyl)-4-oxobut-2-enoyl)-2-methylpiperazin-1-yl)pyridin-2-yl)amino)-N,N-dimethyl-7H-pyrrolo[2,3-d]pyrimidine-6-carboxamide], the DC50 was in the range of 1 to 10 µM.
With `COc1ccc(C(=O)/C=C/C(=O)N(C)CCN(C)c2ccc(Nc3ncc4cc(C(=O)N(C)C)n(C5CCCC5)c4n3)nc2)cc1` [Compound 272, (E)-7-cyclopentyl-2-((5-((2-(4-(4-methoxyphenyl)-N-methyl-4-oxobut-2-enamido)ethyl)(methyl)amino)pyridin-2-yl)amino)-N,N-dimethyl-7H-pyrrolo[2,3-d]pyrimidine-6-carboxamide], the 50% degradation concentration (DC50) was > 10 µM.
`COc1ccc(C(=O)/C=C/C(=O)N2CCN(c3ccc(Nc4ncc5cc(C(=O)N(C)C)n(C6CCCC6)c5n4)nc3)C[C@H]2C)cc1` [Compound 273, (R,E)-7-cyclopentyl-2-((5-(4-(4-(4-methoxyphenyl)-4-oxobut-2-enoyl)-3-methylpiperazin-1-yl)pyridin-2-yl)amino)-N,N-dimethyl-7H-pyrrolo[2,3-d]pyrimidine-6-carboxamide]: the half-maximal degradation concentration (DC50) was 1 to 10 µM.
For `COc1ccc(C(=O)/C=C/C(=O)N2CCN(c3ccc(Nc4ncc5cc(C(=O)N(C)C)n(C6CCCC6)c5n4)nc3)[C@@H](C)C2)cc1` [Compound 274, (S,E)-7-cyclopenty1-2-((5-(4-(4-(4-methoxyphenyl)-4-oxobut-2-enoyl)-2-methylpiperazin-1-yl)pyridin-2-yl)amino)-N,N-dimethyl-7H-pyrrolo[2,3-d]pyrimidine-6-carboxamide], the 50% degradation concentration (DC50) was in the range of 1 to 10 µM.
`COc1ccc(C(=O)/C=C/C(=O)N2CCCN(c3ccc(Nc4ncc5cc(C(=O)N(C)C)n(C6CCCC6)c5n4)nc3)CC2)cc1` [Compound 275, (E)-7-cyclopentyl-2-((5-(4-(4-(4-methoxyphenyl)-4-oxobut-2-enoyl)-1,4-diazepan-1-yl)pyridin-2-yl)amino)-N,N-dimethy1-7H-pyrrolo[2,3-d]pyrimidine-6-carboxamide]: the DC50 lay in the range of 1 to 10 µM.
Still for that read-out and setting: the result for `COc1ccc(C(=O)/C=C/C(=O)N2CCN(c3ccc(Nc4ncc5cc(C(=O)N(C)C)n(C6CCCC6)c5n4)nc3)C[C@@H]2C)cc1` [Compound 276, (S,E)-7-cyclopentyl-2-((5-(4-(4-(4-methoxyphenyl)-4-oxobut-2-enoyl)-3-methylpiperazin-1-yl)pyridin-2-yl)amino)-N,N-dimethyl-7H-pyrrolo[2,3-d]pyrimidine-6-carboxamide] reads 1 to 10 µM.
With `CN(C)C(=O)c1cc2cnc(Nc3ccc(N4CCN(C(=O)/C=C/C(=O)c5ccc(Br)cc5)CC4)cn3)nc2n1C1CCCC1` [Compound 284, (E)-2-((5-(4-(4-(4-bromophenyl)-4-oxobut-2-enoyl)piperazin-1-yl)pyridin-2-yl)amino)-7-cyclopentyl-N,N-dimethyl-7H-pyrrolo[2,3-d]pyrimidine-6-carboxamide], the half-maximal degradation concentration (DC50) was > 10 µM.

The assay is the same for the next values; noted with them: C33A cells, immunoblot.
Regarding `COc1ccc(C(=O)/C=C/C(=O)N2CCN(c3ccc(Nc4ncc5c(C)c(C(C)=O)c(=O)n(C6CCCC6)c5n4)nc3)CC2)cc1` [Compound 136], the “CDK4 degradation, in words” value was “capable to degrading CDK4”.

Another assay has as its system Androgen Receptor. In words: Androgen Receptor Degradation assay, Western blotting. Type of assay: cell-based.
Settings: not given
The protocol: as §1, §2, §3
On to `COc1ccc(C(=O)/C=C/C(=O)N[C@H]2C[C@H](NC(=O)CN3CCN(c4ccc(C(=O)N[C@H]5CC[C@H](Oc6ccc(C#N)c(Cl)c6)CC5)nn4)CC3)C2)cc1` [Compound 200, N-((1r,4r)-4-(3-chloro-4-cyanophenoxy)cyclohexyl)-6-(4-(2-(((1r,3r)-3-((E)-4-(4-methoxyphenyl)-4-oxobut-2-enamido)cyclobutyl)amino)-2-oxoethyl)piperazin-1-yl)pyridazine-3-carboxamide], for which the DC50 was > 10 µM.
On the same count and under the same terms, next, `COc1ccc(C(=O)/C=C/C(=O)N[C@H]2C[C@H](NC(=O)CN3CCN(c4ccc(C(=O)N[C@H]5CC[C@H](Oc6ccc(C#N)c(Cl)c6)CC5)nn4)CC3)C2)c(F)c1` [Compound 201, N-((1r,4r)-4-(3-chloro-4-cyanophenoxy)cyclohexyl)-6-(4-(2-(((1r,3r)-3-((E)-4-(2-fluoro-4-methoxyphenyl)-4-oxobut-2-enamido)cyclobutyl)amino)-2-oxoethyl)piperazin-1-yl)pyridazine-3-carboxamide]: > 10 µM; `COc1ccc(C(=O)/C=C/C(=O)N[C@H]2C[C@H](NC(=O)CN3CCN(c4ccc(C(=O)N[C@H]5CC[C@H](Oc6ccc(C#N)c(Cl)c6)CC5)nn4)CC3)C2)c(Cl)c1` [Compound 286, N-((1r,4r)-4-(3-chloro-4-cyanophenoxy)cyclohexyl)-6-(4-(2-(((1r,3r)-3-((E)-4-(2-chloro-4-methoxyphenyl)-4-oxobut-2-enamido)cyclobutyl)amino)-2-oxoethyl)piperazin-1-yl)pyridazine-3-carboxamide]: > 10 µM.
